Laboratory results published in patent publication US4738954A, “Novel N^6 -substituted-5'-oxidized adenosine analogs” (Warner-Lambert Company, priority 1985, dated 1988).

Tests used:
[1] = tested on: mean arterial blood pressure and heart rate in the conscious rat; test: Antihypertensive evaluation (AHP3): aortic blood pressure and heart rate from conscious rats; assay type: in vivo
Source text: ANTIHYPERTENSIVE EVALUATION (AHP3)
This test procedure is described in the following paragraphs.
A Method for the Direct Monitoring of Aortic Blood Pressure and Heart Rate from Conscious Rats
The continous monitoring of pulsatile blood pressure (BP) from unrestrained conscious rats surgically equipped with polyethylene cannulas was accomplished by means of a computer assisted data capture scheme (CADCS). The basic elements of the methodology are the cannulation procedure and the CADCS.
Rats were anesthetized with Telazol (1:1 tiletamine HCl and zolazepam HCl); 20-40 mg/kg IM and the descending aorta exposed via a midline incision. Cannulas fabricated from polyethylene tubing were inserted into the aorta via an undersized puncture hole below the renal arteries. The puncture hole was made by a 23 G disposable needle with a section of the aorta clamped off above and below the puncture site. The cannulas, consisting of a PE100 (0.86 mm ID) body and a PE50 (0.58 mm ID) tip, were attached to a trocar, inserted through the psoas muscle, and passed subcutaneously along the midline of the back and externalized between the ears. The cannulas were anchored to the psoas muscle and between the scalulae (3-0 green braided suture). The midline incision was closed in two steps (muscle first, skin second) using contiuous over-and over sutures (4-0 chronic). Each rat was then given penicillin 30,000 units subcutaneously (Penicilling G Procaine Sterile Suspension).
The rats were fitted with a harness-spring-swivel assembly designed to protect the cannula and to provide the rat relative freedom of movement. The harnesses were fabricated from nylon hook and loop tape cemented to a metal plate to which spring wires (18-8 stainless steel) were attached to brass swivels. Each polyethylene cannula was channeled through a spring and connected through a swivel to a pressure transducer (Model P23Gb; Statham Instruments; Hato Rey, Puerto Rico) and an infusion pump (Sage model 234-7; Orion Research, Cambridge, MA) by means of PE100 tubing. While on test, each rat received a continuous slow infusion of heparinized saline solution (approximately […] or 40 units of heparin per 24 hours period) to prevent clot formation. Additional "flushes" of the cannula with heparinized saline were carried out when the aortic pluse pressure (systolic minus diastolic) was less than 25 mm Hg.
The pulsatile blood pressure and heart rate of each of 32 rats was monitored every minute by means of two in-laboratory microcomputers communicating directly with a data concentrator computer. The data were first stored on the data concentrator disk and then transferred to a magnetic tape for analysis and report generation by the main research computer. […]

mouse locomotor activity = test: Mouse Activity and Screen Test Procedure (MAST): locomotor activity; assay type: in vivo, Swiss-Webster male mice; details: mice, one hour
Source text: The compounds of the invention are new chemical substances which are useful as pharmaceutical agents for the treatment of psychoses. The antipsychotic activity of representative compounds of the invention was established by the Mouse Activity and Screen Test Procedure (MAST) described below.
Nine unfasted Swiss-Webster male mice weighing 20-30 g are equally divided into three groups for each drug dose to be tested. That is, data for each dose level was generated by three separate groups of three mice each.
A minimum of three dose levels (10, 30, and 100 mg/kg) are tested for each drug. Treatments are administered intraperitoneally one hour prior to testing. All dosages are calculated as parent compound and given in volumes of 10 ml/kg. Compounds are dissolved or suspended in 0.2% Methocel. Control animals are injected with Methocel.
A two part testing procedure is started one hour postinjection. First, the screen test (ST) is performed (see Pharmac. Biochem. Behav. 6, 351-353, 1977). Briefly this test consists of placing mice on individual wire screens which are then rotated 180 degrees at the start of a 60 second observation period. The number of mice falling off the inverted screen is recorded.
Immediately following the screen test, the final phase of testing is initiated by placing each group of three mice in one actophotometer (Life Sciences, 22, 1067-1076, 1978). The actophotometer consists of a cylindrical chamber whose center is occupied by another cylinder which contains the illumination for six photocells located on the perimeter of the chamber. Six light-beam interruptions equal one count. Locomotor activity is recorded by computer at ten minute intervals for 60 minutes.
The data obtained from the screen test are expressed as percent of mice falling off the screen. Data derived from locomotor activity of drug treated mice are compared to the activity of vehicle treated animals and are expressed as percent inhibition of spontaneous locomotion. All percentages reported for inhibition of locomotion (LI) are based upon data accumulated for one hour. Both phases of testing are graded: A=60-100%; C=31-59%; and N=0-30%. An overall dose rating is obtained by the following criteria:
LAD refers to the lowest dose at which an A rating is achieved. […] Utilizing this procedure, an overall dose rating of A was obtained for the noted compound at the indicated dose. The compounds are identified in the Examples.

SMILES | MAP (mean arterial pressure) change ([1]; 10 mg/kg, hour 3, conscious rat) | Inhibition of mouse locomotor activity (mouse locomotor activity; 0.03 mg/kg IP) | Inhibition of mouse locomotor activity (mouse locomotor activity; 0.1 mg/kg IP) | Inhibition of mouse locomotor activity (mouse locomotor activity; 0.3 mg/kg IP) | Inhibition of mouse locomotor activity (mouse locomotor activity; 1 mg/kg IP) | Inhibition of mouse locomotor activity (mouse locomotor activity; 3 mg/kg IP) | Inhibition of mouse locomotor activity (mouse locomotor activity; 10 mg/kg IP) | Inhibition of mouse locomotor activity (mouse locomotor activity; 30 mg/kg IP) | MAP (mean arterial pressure) change ([1]; 10 mg/kg, hour 5, conscious rat) | HR (heart rate) change ([1]; 1 mg/kg, hour 5, conscious rat) | MAP (mean arterial pressure) change ([1]; 1 mg/kg, hour 5, conscious rat) | Inhibition of mouse locomotor activity (mouse locomotor activity; 0.01 mg/kg IP)
CCOC(=O)[C@H]1O[C@@H](n2cnc3c(NC4CC5CCC4C5)ncnc32)[C@H](O)[C@@H]1O (relative stereo) [Example 8, N-6-Norbornyl-adenosine-5'ethylcarboxylate] | 0% | – | – | – | – | – | – | – | – | – | – | –
CCNC(=O)[C@H]1O[C@@H](n2cnc3c(NCc4cccc5ccccc45)ncnc32)[C@H](O)[C@@H]1O [Example 6, N-6-Naphthylmethyladenosine-5'-ethylcarboxamide] | – | 21% | 30% | 82% | 87% | 88% | 90% | – | – | – | – | –
CCOC(=O)[C@H]1O[C@@H](n2cnc3c(NCC(c4ccccc4)c4ccccc4)ncnc32)[C@H](O)[C@@H]1O [Example 5, N6-(2,2-diphenylethyl)-5-adenosine-5'-ethylcarboxylate] | – | – | – | – | – | -4% | 0% | 2% | 0% | – | – | –
CCNC(=O)[C@H]1O[C@@H](n2cnc3c(NCC(c4ccccc4)c4ccccc4)ncnc32)[C@H](O)[C@@H]1O [Example 3, N^6-(2,2-diphenylethyl)-adenosine-5'-ethylcarboxamide] | – | – | 20% | 1% | 72% | 92% | 90% | 93% | – | 0% | 0% | –
CCNC(=O)[C@H]1O[C@@H](n2cnc3c(N[C@H](C)Cc4ccccc4)ncnc32)[C@H](O)[C@@H]1O [Example 1, (R)-N-6-[(2-phenyl-1-methyl)ethyl]-adenosine-5'-ethylcarboxamide] | – | 18% | 91% | 75% | 92% | 99% | 99% | 99% | – | – | – | -8%
